The text below walks through data of patent EP4273142A1 (Université de Bretagne Occidentale, priority 2022, dated 2023).

“Also recorded” adds a separate entry of the source. Where two headings read alike, the source gives them in different places. Marks after values point to notes of the source that are not given here.

The nature of data set [1]: Ligand protonation equilibria by potentiometric titration. The data set is classed as physicochemical. The note with it: 1.0 m kcl.
Data set [2] is described as follows: Pd(II) complexation equilibria by UV spectrophotometry and potentiometry. The note with it: for log KML: stability constant of the Pd(II) complex, 25°C in 1.0 M KCl.
Data set [3] is described as follows: Acid-mediated dissociation (cold inertness) followed by 1H NMR. Format: physicochemical. The note with it: Pd(II) complex, 5 M DCl (HCl 5M), 90°C, up to five months, 0.05M.
For data set [4] the following is noted: cited from earlier work.
Data set [5] is described as follows: EDTA challenge (transchelation) of 109Pd-labelled complexes, radio-HPLC. The note with it: pbs, 1000 eq edta, pH 7.
For data set [6] the following is noted: pbs, 1000 eq edta, 24 h, pH 7.
[7] abbreviates: Table 5, stepwise protonation constant in log units, read-out: H2L + H^+ ⇄H3L.
Where [8] appears, read: Table 5, stepwise protonation constant in log units, read-out: H3L + H^+ ⇄H4L.
Where [9] appears, read: Table 5, stepwise protonation constant in log units, read-out: HL + H^+ ⇄H2L.
The mark [10] stands for this setting: Table 5, stepwise protonation constant in log units, read-out: L + H^+ ⇄HL.
The mark [11] stands for this setting: Table 6, overall constant in log units, read-out: L + H^+ ⇄HL.
Where [12] appears, read: Table 5, complexation constant in log units, […], 1.0 M (K,H)Cl.
Setting [13] is: Table 6, overall formation constant in log units, […], 1.0 M (K,H)Cl.

Regarding `O=C(O)c1cccc(CN2CCCNCCNCCCNCC2)n1` [TE1PA, 6-((1,4,8,11-tetraazacyclotetradecan-1-yl)methyl)picolinate], the pKa in data set [1] (setting [7]) came to 3.05; in data set [1] (setting [8]) it was 2.28; in data set [1] (Table 5, stepwise protonation constant in log units, read-out: H4L + H^+ ⇄H5L), 1.69; in data set [1] (setting [9]) it was 10.1; in data set [1] (setting [10]), 11.1; in data set [1] (setting [11]), 11.1. The “PdHL + H^+ ⇄PdH2L” value in data set [2] (Table 5, stepwise protonation constant of the Pd(II) complex in log units, […], 1.0 M KCl) is 1.8(1).
Consider `c1ccc(CN2CCCNCCNCCCNCC2)nc1` [TE1Py], for which the pKa in data set [1] (setting [7]) worked out at 2.65; in data set [1] (setting [8]) it was 2.83; in data set [1] (setting [9]), 10.4; in data set [1] (setting [10]), 11.5; in data set [1] (setting [11]), 11.5. The “Pd^2+ + L ⇄PdL” value in data set [2] (setting [12]) and in data set [2] (setting [13]) was 42.6(1) in each case. Further, the “Pd^2+ + L + H^+ ⇄PdHL” value in data set [2] (Table 6, overall formation constant in log units, determined by UV spectrophotometry, pH 0-1.5, […], 1.0 M (K,H)Cl) was 44.2(1) ^b. Also, in data set [2], the “log KML” value turned out to be 42.6.
Turning to `C1CNCCNCCCNCCNC1.[Cl-].[Cl-].[Pd+2]` [[Pd(cyclam)]^2+, Palladium(II) 1,4,8,11-tetraazacyclotetradecane dichloride, reference compound], in data set [3], the Dissociation entry is “neither [Pd(cyclam)]^2+ nor [Pd(TE1PA)]^2+ present any significant dissociation; also recorded: HCl 5M, 90°C: Inert”. The “log KML” value in data set [4] (Pd(II) cyclam complex, 25°C in 0.1 M NaClO4, Harrington et al. 2005, value estimated) is “log KML = 56,9”. Besides, the degraded at 24 h in data set [5] came to 13%.
With `c1ccc(CN2CCCNCCNCCCNCC2)cc1` [TE1Bn, reference compound], the pKa was 2.21 in data set [1] (setting [7]); 2.89 in data set [1] (setting [8]); 9.39 in data set [1] (setting [9]); 11.3 in data set [1] (setting [10]); 11.3 in data set [1] (setting [11]). The “Pd^2+ + L ⇄PdL” value in data set [2] (setting [12]) and in data set [2] (setting [13]) was greater than 43 throughout. In addition, the “log KML” value in data set [2] was greater than 43.
With “Palladium (II) 6-methylpicolinate-1,4,8,11-tetraazacyclotetradecane tetrachloropalladate [[Pd(TE1PA)]^2+]”, the Dissociation result in data set [3] was “neither [Pd(cyclam)]^2+ nor [Pd(TE1PA)]^2+ present any significant dissociation; also recorded: HCl, 5M, 90°C: Inert”. In data set [6], the demetallation worked out at 9% demetallation. In data set [2], the “log KML” value is listed as “log KML = 38.4”.
Regarding `OCCN1CCCN(CCO)CCN(CCO)CCCN(CCO)CC1` [tetra(2-hydroxyethyl) cyclam], the “log KML” value in data set [4] (Pd(II) complex, Hay et al. 1987) was 18.32.
